From patent publication US5470855A, “Certain heterocyclic thiazole derivatives and their therapeutic use” (Sanofi, priority 1989, dated 1995)

What was measured:
mouse = assay: protection against PAF-induced lethal systemic shock in the mouse; format: in vivo; conditions: oral dose of 5 mg/kg, PAF 100 μg/kg
Description: Haemostas, 56(1) 40-44 (1986) and that of protection against lethal systemic shock in the mouse, which is described in J. Pharmacol. Exp. Ther 247(2) 617-23 (1988).

guinea pig = assay: PAF-induced bronchospasm in the guinea pig; format: in vivo
rabbit platelets = assay: inhibition of the aggregation of rabbit platelets induced by the PAF-acether; format: cell-based; conditions: Oryctolagus cuniculus, Platelet, PAF introduced into the medium at 4×10^-10 M, read-out: IC50 (concentration inhibiting 50% of the aggregation induced by the PAF)
Description: Thus in vitro it is possible to study the inhibition of the aggregation of rabbit platelets induced by the PAF-acether according to the method described in Thrombosis Research 41 211-226 (1986). […] Therap.

## CC(C)c1cc(C(C)C)c(-c2nc(N(CCN(C)C)Cc3cccnc3)sc2Cl)c(C(C)C)c1 [Example 91, 2-(N-[2-N',N'-dimethylaminoethyl]N-[3-pyridylmethyl]amino) 5-chloro 4-(2,4,6-triisopropylphenyl)thiazole]
mouse
  protection from the lethal systemic shock induced by the PAF: protect the mouse from the lethal systemic shock

## CC(C)c1cc(C(C)C)c(-c2nc(N(CCN(C)C)Cc3cccnc3)sc2Br)c(C(C)C)c1 [Example 90, 2-(N-[2-N',N'-dimethylaminoethyl]N-[3-pyridylmethyl]amino) 5-bromo 4-(2,4,6-triisopropylphenyl) thiazole]
mouse
  protection from the lethal systemic shock induced by the PAF: protect the mouse from the lethal systemic shock

## CC(C)c1cc(C(C)C)c(-c2csc(N(CCN(C)C)Cc3cccnc3)n2)c(C(C)C)c1 [Example 2]
Guinea pig; IV dose of 1 mg/kg
  duration of complete inhibition of the bronchospasm: more than 96 hours
Guinea pig; oral dose of 3 mg/kg
  duration of complete inhibition of the bronchospasm: more than 96 hours

## Cc1nnc2n1-c1sc(CCC(=O)N3CCOCC3)cc1C(c1ccccc1Cl)=NC2 [WEB 2086]
Rabbit platelets
  IC50: 50 nM

## Cc1cc(C)c(-c2csc(N(CCN(C)C)Cc3cccnc3)n2)c(C)c1 [Example 14, 2-(N-[2-N',N'-dimethylaminoethyl]N-[3-pyridylmethyl]amino)4-(2,4,6-trimethylphenyl)thiazole]
mouse
  protection from the lethal systemic shock induced by the PAF: protect the mouse from the lethal systemic shock

## Cc1oc(N(CCN(C)C)Cc2cccnc2)nc1-c1ccc(Cl)cc1Cl [Example 79, 2(N-[2-N',N'-dimethylaminoethyl]N-[3-pyridylmethyl]amino) 4-(2,4-dichlorophenyl)5-methyl oxazole]
mouse
  protection from the lethal systemic shock induced by the PAF: protect the mouse from the lethal systemic shock

## Cc1sc(N(CCN(C)C)Cc2cccnc2)nc1-c1ccc(Cl)cc1Cl [Example 50, 2-(N-[2-N',N'-dimethylaminoethyl]N-[3-pyridylmethyl]amino)4-(2,4-dichlorophenyl) 5-methyl thiazole]
mouse
  protection from the lethal systemic shock induced by the PAF: protect the mouse from the lethal systemic shock
